Like-named read-outs stand apart in the source and are kept apart here.
Columns and labels:
[1] = tested on: Escherichia coli (ECO) isolates; experiment: MIC of compounds alone and combined with antibacterials, broth microdilution (CLSI); assay type: cell-based; conditions: Escherichia coli
Procedure, shortened: (§1)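 Log-phase isolates at final 5·10^5 CFU/mL in cation-adjusted Mueller-Hinton broth, incubated 16-20 h at 35° C in ambient air. MIC read visually as lowest concentration preventing growth, for compound alone and for antibacterial at each compound concentration.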

[2] = tested on: Enterobacter cloacae (ECL) isolates; experiment: as above; assay type: cell-based; conditions: for MIC: Enterobacter cloacae
Procedure, shortened: as §1

C=CC1=C(C(=O)O)N2C(=O)[C@@H](NC(=O)/C(=N\OCC(=O)O)c3csc(N)n3)[C@H]2SC1 [FIX, Cefixime]
MIC ([1]; strain ECO UFR185 (OXA-48), CLA @ 4 μg/ml+ ATB, read-out: MIC): > 128 µg/mL
MIC ([1]; strain ECO UFR186 (TEM-1, CTX-M-14, OXA-48), CLA @ 4 μg/ml+ ATB): 8 µg/mL
MIC ([1]; strain ECO UFR189 (TEM-1, CTX-M-15, OXA-48), ATB alone, read-out: MIC): > 128 µg/mL
MIC ([1]; strain ECO UFR189 (TEM-1, CTX-M-15, OXA-48), CLA @ 4 μg/ml+ ATB): 4 µg/mL
MIC ([1]; strain ECO UFR190 (CTX-M-24, OXA-48), ATB alone): 64 µg/mL
MIC ([1]; strain ECO UFR190 (CTX-M-24, OXA-48), CLA @ 4 μg/ml+ ATB): 8 µg/mL
MIC ([1]; strain ECO UFR191 (TEM-1, CTX-M-24, OXA-48), ATB alone, read-out: MIC): > 128 µg/mL
MIC ([1]; strain ECO UFR191 (TEM-1, CTX-M-24, OXA-48), CLA @ 4 μg/ml+ ATB): 4 µg/mL
MIC ([1]; strain ECO UFR207 (CTX-M-15), ATB alone, read-out: MIC): > 128 µg/mL
MIC ([1]; strain ECO UFR207 (CTX-M-15), CLA @ 4 μg/ml+ ATB): 1 µg/mL
MIC ([1]; strain ECO UFR208 (SHV-12), ATB alone, read-out: MIC): > 128 µg/mL
MIC ([1]; strain ECO UFR208 (SHV-12), CLA @ 4 μg/ml+ ATB, read-out: MIC): > 128 µg/mL
MIC ([1]; strain ECO UFR209 (TEM-1, CTX-M-15), ATB alone, read-out: MIC): 1020 µg/mL
MIC ([1]; strain ECO UFR209 (TEM-1, CTX-M-15), CLA @ 4 μg/ml+ ATB): 1 µg/mL
MIC ([1]; strain ECO UFR210 (SHV-12), CLA @ 4 μg/ml+ ATB): 0.5 µg/mL
MIC ([1]; strain ECO UFR211 (TEM-24), ATB alone, read-out: MIC): > 128 µg/mL
MIC ([1]; strain ECO UFR212 (CMY-2), ATB alone, read-out: MIC): > 128 µg/mL
MIC ([1]; strain ECO UFR212 (CMY-2), CLA @ 4 μg/ml+ ATB, read-out: MIC): > 128 µg/mL
MIC ([1]; strain ECO UFR218 (TEM-1, SHV-1, CTX-M-15), ATB alone, read-out: MIC): > 128 µg/mL
MIC ([1]; strain ECO UFR218 (TEM-1, SHV-1, CTX-M-15), CLA @ 4 μg/ml+ ATB): 1 µg/mL
MIC ATB in combination ([2]; ECL 2185D, AF1 @ 4 μg/mL): >128 µg/mL
MIC ATB in combination ([2]; ECL 2185D, AF1 @ 8 μg/mL): 64 µg/mL
MIC ATB in combination ([2]; ECL 190310, AF1 @ 4 μg/mL): 64 µg/mL
MIC ATB in combination ([2]; ECL 190310, AF1 @ 8 μg/mL): 32 µg/mL
MIC ATB in combination ([2]; ECL 190408, AF1 @ 4 μg/mL): 0.5 µg/mL
MIC ATB in combination ([2]; ECL 190408, AF1 @ 8 μg/mL): 0.25 µg/mL
MIC ATB in combination ([2]; ECL 200138, AF1 @ 4 μg/mL): 64 µg/mL
MIC ATB in combination ([2]; ECL 200138, AF1 @ 8 μg/mL): 16 µg/mL
MIC ATB in combination ([2]; ECL 200322, AF1 @ 4 μg/mL): 0.5 µg/mL
MIC ATB in combination ([2]; ECL 200322, AF1 @ 8 μg/mL): 0.25 µg/mL
MIC ATB in combination ([2]; ECL 260033, AF1 @ 4 μg/mL): >128 µg/mL
MIC ATB in combination ([2]; ECL 260033, AF1 @ 8 μg/mL): 2 µg/mL
MIC ATB in combination ([2]; ECL 260253, AF1 @ 4 μg/mL): 8 µg/mL
MIC ATB in combination ([2]; ECL 260253, AF1 @ 8 μg/mL): 8 µg/mL
MIC ATB in combination ([2]; ECL 260323, AF1 @ 4 μg/mL): 64 µg/mL
MIC ATB in combination ([2]; ECL 260323, AF1 @ 8 μg/mL): 32 µg/mL
MIC ATB in combination ([2]; ECL 260508, AF1 @ 4 μg/mL): <=0.25 μg/mL
MIC ATB in combination ([2]; ECL 260508, AF1 @ 8 μg/mL): <=0.25 μg/mL
MIC ATB in combination ([2]; ECL NEM146383, AF1 @ 4 μg/mL): 32 µg/mL
MIC ATB in combination ([2]; ECL NEM146383, AF1 @ 8 μg/mL): 16 µg/mL
MIC ATB in combination ([2]; ECL P99, AF1 @ 4 μg/mL): 16 µg/mL
MIC ATB in combination ([2]; ECL P99, AF1 @ 8 μg/mL): 1 µg/mL
MIC ATB in combination ([2]; ECL UFR12, AF1 @ 4 μg/mL): <=0.25 μg/mL
MIC ATB in combination ([2]; ECL UFR12, AF1 @ 8 μg/mL): <=0.25 μg/mL
MIC ATB in combination ([2]; ECL UFR13, AF1 @ 4 μg/mL): 8 µg/mL
MIC ATB in combination ([2]; ECL UFR13, AF1 @ 8 μg/mL): 8 µg/mL
MIC ATB in combination ([2]; ECL UFR14, AF1 @ 4 μg/mL): 16 µg/mL
MIC ATB in combination ([2]; ECL UFR14, AF1 @ 8 μg/mL): 8 µg/mL
MIC ATB in combination ([2]; ECL UFR60, AF1 @ 4 μg/mL): 4 µg/mL
MIC ATB in combination ([2]; ECL UFR60, AF1 @ 8 μg/mL): 4 µg/mL
MIC ATB in combination ([2]; ECL UFR70, AF1 @ 4 μg/mL): 16 µg/mL
MIC ATB in combination ([2]; ECL UFR70, AF1 @ 8 μg/mL): 2 µg/mL
MIC ATB in combination ([2]; ECL UFR84, AF1 @ 4 μg/mL): 64 µg/mL
MIC ATB in combination ([2]; ECL UFR84, AF1 @ 8 μg/mL): 16 µg/mL
MIC ATB in combination ([2]; ECL UFR85, AF1 @ 4 μg/mL): 8 µg/mL
MIC ATB in combination ([2]; ECL UFR85, AF1 @ 8 μg/mL): 0.5 µg/mL
MIC ATB in combination ([2]; ECL UFR194, AF1 @ 4 μg/mL): 1 µg/mL
MIC ATB in combination ([2]; ECL UFR194, AF1 @ 8 μg/mL): 2 µg/mL
MIC ATB in combination ([2]; ECL UFR200, AF1 @ 4 μg/mL): 1 µg/mL
MIC ATB in combination ([2]; ECL UFR200, AF1 @ 8 μg/mL): 0.5 µg/mL
MIC ([2]; ATB alone, strain ECL UFR197 (TEM-1, CTX-M-15, OXA-1, OXA-48)): > 128 µg/mL
MIC ([2]; ATB alone, strain ECL UFR198 (TEM-1, SHV-12, CTX-M-15, DHA-1, OXA-1, OXA-48)): > 128 µg/mL
MIC ([2]; ATB combined with CLA @ 4 μg/ml, strain ECL UFR197 (TEM-1, CTX-M-15, OXA-1, OXA-48), read-out: MIC): 128 µg/mL
MIC ([2]; ATB combined with CLA @ 4 μg/ml, strain ECL UFR198 (TEM-1, SHV-12, CTX-M-15, DHA-1, OXA-1, OXA-48)): > 128 µg/mL
MIC ([2]; strain ECL 2185D (OXA-163), ATB alone): > 128 µg/mL
MIC ([2]; strain ECL 2185D (OXA-163), CLA @ 4 μg/ml+ ATB): > 128 µg/mL
MIC ([2]; strain ECL 190310 (AmpC), ATB alone): > 128 µg/mL
MIC ([2]; strain ECL 190310 (AmpC), CLA @ 4 μg/ml+ ATB): > 128 µg/mL
MIC ([2]; strain ECL 190408 (TEM-1, CTX-M-15, OXA-1), ATB alone): 512 µg/mL
MIC ([2]; strain ECL 190408 (TEM-1, CTX-M-15, OXA-1), CLA @ 4 μg/ml+ ATB, read-out: MIC): 128 µg/mL
